Among the test systems are 786-0 renal; A498 renal; A549 NSCLC; COLO 205 colon; EKVX NSCLC; HL-60(TB) leukemia; HOP-62 NSCLC; HOP-92 NSCLC; KM12 colon; NCI-H522 lung; OVCAR-5 ovarian; OVCAR-8 ovarian; RPMI-8226 leukemia; RXF 393 renal; UO-31 renal; SK-MEL-5 melanoma; SN12C renal.
Test in all cases: NCI anticancer screen, dose series, 48 h

The structures appear in SMILES notation.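 96-well plates; 48 h exposure; 5 concentrations. Endpoints by linear interpolation between flanking doses. Not reached: highest tested concentration assigned. TGI marks complete inhibition of growth.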 A value given as a limit tells only on which side of the number the result lay.

`COC(=O)NC12CC3CC(CC(F)(C3)C1)C2`: the TGI with 786-0 renal, in the assay with A498 renal, in the assay with A549 NSCLC, in the assay with COLO 205 colon, with EKVX NSCLC and with HL-60(TB) leukemia was > 100 µM in each case. The TGI in the assay with HOP-62 NSCLC, in the assay on HOP-92 NSCLC, with KM12 colon, in the assay on NCI-H522 lung, in the assay on OVCAR-5 ovarian and in the assay on OVCAR-8 ovarian was > 100 µM throughout. In addition, the TGI in the assay on RPMI-8226 leukemia, in the assay on RXF 393 renal and with UO-31 renal was > 100 µM in each case.
Regarding `CN(C)CC1CCCC(CN(C)C)C1=NOC(=O)c1ccccc1` (stereo unspecified), the TGI with 786-0 renal, with A498 renal, with A549 NSCLC, with COLO 205 colon, in the assay on EKVX NSCLC and in the assay on HL-60(TB) leukemia was > 100 µM throughout. Moreover, the TGI in the assay with HOP-62 NSCLC, in the assay with HOP-92 NSCLC, in the assay with KM12 colon, in the assay with NCI-H522 lung, with OVCAR-5 ovarian and with OVCAR-8 ovarian was > 100 µM in each case. The TGI in the assay on RPMI-8226 leukemia, with SK-MEL-5 melanoma, in the assay with SN12C renal and in the assay on UO-31 renal was > 100 µM throughout.
Turning to `COc1ccc(N2C(=O)C3c4[nH]c5ccccc5c4C4CC(C)CC(C)C4C3C2=O)cc1` (stereo unspecified), the TGI in the assay on 786-0 renal, in the assay with A498 renal, in the assay with A549 NSCLC, with COLO 205 colon, in the assay on EKVX NSCLC and with HL-60(TB) leukemia was > 100 µM in each case. In addition, the TGI in the assay on HOP-62 NSCLC, with HOP-92 NSCLC, in the assay on NCI-H522 lung, with OVCAR-8 ovarian, in the assay with RPMI-8226 leukemia and in the assay with RXF 393 renal was > 100 µM in each case. In addition, the TGI in the assay with SK-MEL-5 melanoma, in the assay with SN12C renal and with UO-31 renal was > 100 µM in each case.
For `CCCCCCCCCCCCCCCCOCC(CP(=O)([O-])OCC[n+]1ccccc1)OC` (stereo unspecified), the TGI with 786-0 renal was determined as 28.7 µM; in the assay with A498 renal, 25.5 µM; with A549 NSCLC, 24.1 µM; with COLO 205 colon it was 20.5 µM; in the assay on EKVX NSCLC, 34.7 µM; in the assay on HL-60(TB) leukemia it was 5.19 µM. The TGI is 25.2 µM in the assay with HOP-62 NSCLC; 5.97 µM in the assay with HOP-92 NSCLC; 5.62 µM with KM12 colon; 39.5 µM in the assay on NCI-H522 lung; 30 µM in the assay on OVCAR-8 ovarian; 11.8 µM in the assay with RPMI-8226 leukemia. For the same compound, the TGI with SK-MEL-5 melanoma stood at 27.7 µM; in the assay on SN12C renal, 24.9 µM; with UO-31 renal, 21.2 µM.
Turning to `CC(O)c1ccc[n+](Cc2ccccc2)c1` (stereo unspecified), the TGI with 786-0 renal, in the assay on A549 NSCLC, in the assay with COLO 205 colon, with EKVX NSCLC, in the assay with HL-60(TB) leukemia and with HOP-62 NSCLC was > 400 µM each time. Also, the TGI in the assay with HOP-92 NSCLC, in the assay on KM12 colon, with NCI-H522 lung, in the assay with OVCAR-5 ovarian, with OVCAR-8 ovarian and in the assay on RPMI-8226 leukemia was > 400 µM in each case. Moreover, the TGI with RXF 393 renal, in the assay on SK-MEL-5 melanoma and with SN12C renal was > 400 µM in each case.
For the compound `O=C(c1ccccc1)[C@@H]1C[C@H](Sc2ccccc2)c2cc(Cl)ccc2N1`, the TGI in the assay on 786-0 renal was 33.6 µM; with A498 renal, 48.1 µM; with A549 NSCLC it was > 100 µM; with COLO 205 colon, > 100 µM; in the assay on EKVX NSCLC, 50.3 µM; in the assay on HOP-62 NSCLC, > 100 µM. In addition, the TGI in the assay on KM12 colon was > 100 µM; with NCI-H522 lung it was 48.6 µM; with OVCAR-5 ovarian it was > 100 µM; in the assay with OVCAR-8 ovarian it was 66.8 µM; with RPMI-8226 leukemia, > 100 µM; in the assay on RXF 393 renal it was 26.5 µM. Besides, the TGI was 26.9 µM in the assay with SK-MEL-5 melanoma, 33.7 µM in the assay with SN12C renal and 56.7 µM in the assay on UO-31 renal.
With `Cn1ccc2c(C(=O)c3ccccc3)cccc2c1=O`, the TGI in the assay with 786-0 renal is > 100 µM; with A549 NSCLC, > 100 µM; with COLO 205 colon it was > 100 µM; in the assay on EKVX NSCLC, > 100 µM; in the assay with HL-60(TB) leukemia it was 88.9 µM; in the assay with HOP-62 NSCLC, 93.7 µM. Besides, the TGI in the assay on HOP-92 NSCLC was > 100 µM; in the assay with KM12 colon, > 100 µM; in the assay on NCI-H522 lung, 81.1 µM; in the assay with OVCAR-8 ovarian it was > 100 µM; in the assay on RPMI-8226 leukemia it was > 100 µM; in the assay on RXF 393 renal, > 100 µM. Further, the TGI in the assay with SK-MEL-5 melanoma and with SN12C renal was > 100 µM throughout.
With `O=C(O)CCc1cccc2c1oc1c(CCC(=O)O)cccc12`, the TGI with 786-0 renal, in the assay on A498 renal, with A549 NSCLC, in the assay with COLO 205 colon, in the assay on HL-60(TB) leukemia and in the assay with HOP-92 NSCLC was > 100 µM throughout. Moreover, the TGI in the assay with KM12 colon, in the assay on NCI-H522 lung, in the assay with OVCAR-5 ovarian, in the assay on OVCAR-8 ovarian, in the assay with RPMI-8226 leukemia and with RXF 393 renal was > 100 µM each time. Further, the TGI with SK-MEL-5 melanoma, with SN12C renal and in the assay on UO-31 renal was > 100 µM each time.
For the compound `CC(C)C(Sc1nc(-c2ccccc2)c(-c2ccccc2)[nH]1)C(=O)NN` (stereo unspecified), the TGI in the assay with 786-0 renal, in the assay on A498 renal, in the assay on A549 NSCLC, with COLO 205 colon, in the assay with HL-60(TB) leukemia and in the assay on HOP-62 NSCLC was > 100 µM in each case. Moreover, the TGI in the assay with HOP-92 NSCLC, in the assay on KM12 colon, with NCI-H522 lung, in the assay with OVCAR-5 ovarian, with OVCAR-8 ovarian and in the assay on RPMI-8226 leukemia was > 100 µM in each case. The TGI with RXF 393 renal, with SK-MEL-5 melanoma, in the assay with SN12C renal and in the assay on UO-31 renal was > 100 µM in each case.

These data come from PubChem BioAssay (NCI).
